Laboratory results as given in the supplement of paper PMC7214452.
Where a name gives a salt, the structure may show the parent alone.

Assays:
Experiment in all cases: normalized area under the dose-response curve (viability relative to DMSO control) (fraction); higher = less sensitive (more viable cells)
Details in all cases: exposure time not given
MM1.R (cancer type: MM) = tested on: MM1.R (cancer type: MM)
Procedure: (§1)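 25 myeloma and 15 non-Hodgkin lymphoma cell lines were exposed to each of 76 drugs as 7-point log dilutions (0.01 nM–10 µM) in duplicate. Viability was read with CellTiter-Glo and normalised to DMSO (0.1%) and staurosporine (10 µM) plate controls. Normalised AUC was calculated by the trapezoidal method relative to the negative control.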

[1] = tested on: SU-DHL1 (cancer type: TCL)
Procedure: as §1

LP1 (cancer type: MM) = tested on: LP1 (cancer type: MM)
Procedure: as §1

[2] = tested on: KMS28PE (cancer type: MM)
Procedure: as §1

EJM (cancer type: MM) = tested on: EJM (cancer type: MM)
Procedure: as §1

MM1.S (cancer type: MM) = tested on: MM1.S (cancer type: MM)
Procedure: as §1

[3] = tested on: Granta-519 (cancer type: Mantle)
Procedure: as §1

[4] = tested on: OCI-MY5/CRBN (cancer type: MM)
Procedure: as §1

[5] = tested on: OCI-LY1 (cancer type: DLBCL)
Procedure: as §1

SKMM2 (cancer type: MM) = tested on: SKMM2 (cancer type: MM)
Procedure: as §1

OPM2 (cancer type: MM) = tested on: OPM2 (cancer type: MM)
Procedure: as §1

[6] = tested on: SU-DHL6 (cancer type: DLBCL)
Procedure: as §1

JJN3 (cancer type: MM) = tested on: JJN3 (cancer type: MM)
Procedure: as §1

[7] = tested on: NCI-H929 (cancer type: MM)
Procedure: as §1

My-La (cancer type: TCL) = tested on: My-La (cancer type: TCL)
Procedure: as §1

XG2 (cancer type: MM) = tested on: XG2 (cancer type: MM)
Procedure: as §1

L363 (cancer type: MM) = tested on: L363 (cancer type: MM)
Procedure: as §1

[8] = tested on: Karpas-299 (cancer type: TCL)
Procedure: as §1

AMO1 (cancer type: MM) = tested on: AMO1 (cancer type: MM)
Procedure: as §1

[9] = tested on: RPMI 8226 (cancer type: MM)
Procedure: as §1

KMS34 (cancer type: MM) = tested on: KMS34 (cancer type: MM)
Procedure: as §1

[10] = tested on: SU-DHL2 (cancer type: DLBCL)
Procedure: as §1

FR4 (cancer type: MM) = tested on: FR4 (cancer type: MM)
Procedure: as §1

KMS18 (cancer type: MM) = tested on: KMS18 (cancer type: MM)
Procedure: as §1

[11] = tested on: JVM2 (cancer type: Mantle)
Procedure: as §1

[12] = tested on: OCI-MY7 (cancer type: MM)
Procedure: as §1

[13] = tested on: OCI-MY5 (cancer type: MM)
Procedure: as §1

Se-Ax (cancer type: TCL) = tested on: Se-Ax (cancer type: TCL)
Procedure: as §1

KMS26 (cancer type: MM) = tested on: KMS26 (cancer type: MM)
Procedure: as §1

[14] = tested on: Mino (cancer type: Mantle)
Procedure: as §1

[15] = tested on: HuT 78 (cancer type: TCL)
Procedure: as §1

[16] = tested on: OCI-LY19 (cancer type: DLBCL)
Procedure: as §1

[17] = tested on: SR-786 (cancer type: TCL)
Procedure: as §1

[18] = tested on: KMS28BM (cancer type: MM)
Procedure: as §1

U266 (cancer type: MM) = tested on: U266 (cancer type: MM)
Procedure: as §1

KMS11 (cancer type: MM) = tested on: KMS11 (cancer type: MM)
Procedure: as §1

[19] = tested on: OCI-MY5/Vec (cancer type: MM)
Procedure: as §1

[20] = tested on: JeKo-1 (cancer type: Mantle)
Procedure: as §1

[21] = tested on: OCI-LY3 (cancer type: DLBCL)
Procedure: as §1

[22] = tested on: KMS12PE (cancer type: MM)
Procedure: as §1

Row | Structure (SMILES) | normalized area under the dose-response curve (MM1.R (cancer type: MM)) | normalized area under the dose-response curve [1] | normalized area under the dose-response curve (LP1 (cancer type: MM)) | normalized area under the dose-response curve [2] | normalized area under the dose-response curve (EJM (cancer type: MM)) | normalized area under the dose-response curve (MM1.S (cancer type: MM)) | normalized area under the dose-response curve [3] | normalized area under the dose-response curve [4] | normalized area under the dose-response curve [5] | normalized area under the dose-response curve (SKMM2 (cancer type: MM)) | normalized area under the dose-response curve (OPM2 (cancer type: MM)) | normalized area under the dose-response curve [6] | normalized area under the dose-response curve (JJN3 (cancer type: MM)) | normalized area under the dose-response curve [7] | normalized area under the dose-response curve (My-La (cancer type: TCL)) | normalized area under the dose-response curve (XG2 (cancer type: MM)) | normalized area under the dose-response curve (L363 (cancer type: MM)) | normalized area under the dose-response curve [8] | normalized area under the dose-response curve (AMO1 (cancer type: MM)) | normalized area under the dose-response curve [9] | normalized area under the dose-response curve (KMS34 (cancer type: MM)) | normalized area under the dose-response curve [10] | normalized area under the dose-response curve (FR4 (cancer type: MM)) | normalized area under the dose-response curve (KMS18 (cancer type: MM)) | normalized area under the dose-response curve [11] | normalized area under the dose-response curve [12] | normalized area under the dose-response curve [13] | normalized area under the dose-response curve (Se-Ax (cancer type: TCL)) | normalized area under the dose-response curve (KMS26 (cancer type: MM)) | normalized area under the dose-response curve [14] | normalized area under the dose-response curve [15] | normalized area under the dose-response curve [16] | normalized area under the dose-response curve [17] | normalized area under the dose-response curve [18] | normalized area under the dose-response curve (U266 (cancer type: MM)) | normalized area under the dose-response curve (KMS11 (cancer type: MM)) | normalized area under the dose-response curve [19] | normalized area under the dose-response curve [20] | normalized area under the dose-response curve [21] | normalized area under the dose-response curve [22]
1 | O=C(/C=C\n1cnc(-c2cc(C(F)(F)F)cc(C(F)(F)F)c2)n1)NNc1cnccn1 [Selinexor] | 0.23 | 0.277 | 0.446 | 0.41 | 0.389 | 0.18 | 0.705 | 0.105 | 0.634 | 0.598 | 0.411 | 0.789 | 0.468 | 0.25 | 0.469 | 0.256 | 0.153 | 0.553 | 0.182 | 0.424 | 0.313 | 0.697 | 0.703 | 0.446 | 0.407 | 0.13 | 0.151 | 0.483 | 0.42 | 0.507 | 0.227 | 0.38 | 0.306 | 0.62 | 0.415 | 0.126 | 0.0963 | 0.43 | 0.643 | 0.47
2 | N[C@@H](Cc1ccc(N(CCCl)CCCl)cc1)C(=O)O [Melphalan hydrochloride] | 0.8 | 0.41 | 0.85 | 0.758 | 0.685 | 0.79 | 0.798 | 0.926 | 0.94 | 0.892 | 0.896 | 0.905 | 0.874 | 0.77 | 0.892 | 0.776 | 0.73 | 0.907 | 0.722 | 0.897 | 0.573 | 0.936 | 0.919 | 0.842 | 0.742 | 0.73 | 0.643 | 0.778 | 0.791 | 0.818 | 0.787 | 1.01 | 0.973 | 0.95 | 0.885 | 0.826 | 0.936 | 0.788 | 0.858 | 0.86
3 | C[C@@H](Oc1cc(-c2cnn(C3CCNCC3)c2)cnc1N)c1c(Cl)ccc(F)c1Cl [Crizotinib] | 0.44 | 0.0611 | 0.465 | 0.323 | 0.471 | 0.4 | 0.769 | 0.75 | 0.817 | 0.487 | 0.457 | 0.831 | 0.405 | 0.39 | 0.744 | 0.338 | 0.447 | 0.437 | 0.362 | 0.34 | 0.306 | 0.833 | 0.509 | 0.456 | 0.654 | 0.73 | 0.381 | 0.368 | 0.577 | 0.731 | 0.359 | 0.733 | 0.406 | 0.358 | 0.335 | 0.423 | 0.703 | 0.677 | 0.765 | 0.54
4 | CS(=O)(=O)c1ccc(C(=O)Nc2ccc(Cl)c(-c3ccccn3)c2)c(Cl)c1 [Vismodegib] | 0.88 | 0.807 | 0.906 | 0.871 | 0.901 | 0.85 | 0.924 | 0.942 | 0.967 | 1.01 | 0.932 | 0.864 | 0.906 | 0.87 | 0.873 | 0.867 | 0.859 | 0.895 | 0.871 | 0.889 | 0.801 | 0.94 | 1.02 | 0.995 | 0.819 | 0.94 | 0.826 | 0.765 | 0.838 | 0.911 | 0.9 | 0.827 | 0.858 | 0.948 | 0.896 | 0.93 | 0.922 | 0.878 | 0.939 | 0.94
5 | O=C(c1ccc(F)c(F)c1Nc1ccc(I)cc1F)N1CC(O)([C@@H]2CCCCN2)C1 [Cobimetinib] | 0.65 | 0.383 | 0.634 | 0.608 | 0.54 | 0.69 | 0.888 | 0.822 | 0.996 | 0.813 | 0.629 | 0.83 | 0.742 | 0.6 | 0.857 | 0.501 | 0.556 | 0.842 | 0.392 | 0.736 | 0.494 | 0.873 | 0.696 | 0.588 | 0.724 | 0.68 | 0.587 | 0.538 | 0.766 | 0.887 | 0.807 | 0.923 | 0.808 | 0.731 | 0.767 | 0.722 | 0.843 | 0.878 | 0.9 | 0.75
6 | Cc1[nH]c2ccccc2c1CCNCc1ccc(/C=C/C(=O)NO)cc1 [Panobinostat] | 0.35 | 0.23 | 0.592 | 0.52 | 0.188 | 0.25 | 0.424 | 0.13 | 0.167 | 0.698 | 0.812 | 0.501 | 0.56 | 0.16 | 0.422 | 0.483 | 0.613 | 0.187 | 0.444 | 0.682 | 0.333 | 0.286 | 0.594 | 0.618 | 0.347 | 0.47 | 0.297 | 0.244 | 0.454 | 0.303 | 0.249 | 0.36 | 0.374 | 0.567 | 0.389 | 0.659 | 0.173 | 0.284 | 0.322 | 0.42
